Drawing on PubChem BioAssay AID624491 (Broad Institute, 2012), this text covers AC26 for 95 compounds.

In this assay the test system is D54 ERlucT glycosylation luciferase reporter, luminescence, 24 h. Description: blockers of NLG process in reporter cells – D54 ERlucT cells, luminescence, cherry-picks, dose response (AID 624491).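 Further: signal gain reflects blocked N-linked glycosylation of a luciferase reporter; actives raise luciferase signal so AC26 marks activators of the reporter.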

Active and inactive are the calls of the source.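 How the source made its calls: active means fitted curve crossing a set activation limit at or below the highest valid dose tested; inconclusive means flat fit at 30 to 70% activation, or poor fit; inactive means the rest, including signal decreases.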

With `Cc1cc(C)c2c(N)c3cccc(C)c3nc2n1`, the AC26 was 478 nM.
On to `Cc1nc([N+](=O)[O-])c(Br)n1Cc1ccc(Cl)c(Cl)c1`, for which the AC26 is 885 nM.
As for `CC(C)(C)c1ccc(OCc2ccc(C(=O)N3CCOCC3)o2)cc1`, the AC26 was 2160 nM.
Take `COc1ccc(S(=O)(=O)N2CCCCC2)cc1NC(=O)c1[nH]c(C)c(C(C)=O)c1C`: the AC26 was 1630 nM.
With `Cc1cc(C)cc(N2C(=O)NC(=O)/C(=C\C=C\c3ccco3)C2=O)c1`, the AC26 is 1130 nM.
Under `NNC(=O)c1nc(-c2ccccc2)cc(-c2ccccc2)n1` stands 2320 nM; under `CN=c1sc(C(=O)Nc2cccc(Cl)c2)cc(=O)n1C`, 349 nM.
In the case of `Cc1cnc(NC(=O)c2cc(S(=O)(=O)N(C)C)ccc2N2CCCC2)s1`, the AC26 is 10.7 nM.
With `Cc1[nH][nH]c(=O)c1C(c1ccc(-c2cccc(Cl)c2)o1)c1c(C)[nH][nH]c1=O`, the AC26 is < 1.2 nM.
On to `O=C(Cn1cnc2c(NCc3ccccc3)ncnc21)NCc1ccccc1`, for which the AC26 is 1760 nM.
As to `CCN(CC)CCC(=O)Nc1cccc2c1C(=O)c1ccccc1C2=O`, the AC26 is 965 nM.
As to `Cc1ccnc(NC(=O)CN2C(=O)NC(C)(c3ccc4ccccc4c3)C2=O)c1` (stereo not given), the AC26 was 11400 nM.
Take `Cc1ccc(S/C=C\C(=O)c2ccccc2)cc1`: the AC26 is 3170 nM.
Under `COc1cccc(C(NC(C)=O)c2nc(-c3ccccc3OC)cs2)c1` (stereo not given) stands 452 nM.
To `O=C(Cc1ccc(-c2ccccc2)cc1)NCc1ccccc1` belongs 27.8 nM.
For `CC(C)/C=C1\CC/C(=C\c2cccnc2)C1=O`, the AC26 was 4840 nM.
As for `CNc1ccc(Br)cc(C(=O)/C=C/c2cccc(OC)c2OC)c1=O`, the AC26 was 2220 nM.
Under `Cc1ccc(C(=O)NCc2nnc(SCC(=O)NC(C)c3ccccc3)n2C)cc1` (stereo not given) stands 3980 nM; under `COc1cc(/C=N/Nc2nc3c(c(=O)n(C)c(=O)n3C)n2Cc2ccccc2)ccc1OC(=O)c1ccco1`, 10500 nM; under `CCOC(=O)c1ccc(Oc2cc(C)nc(SC)n2)cc1`, 1720 nM.
As for `Cc1ccccc1OCC(O)CN1CCN(CCN2C(=O)c3cccc4cccc(c34)C2=O)CC1` (stereo not given), the AC26 was 13500 nM.
For the compound `Cc1cc(C)cc(NC2=NC3(CCCCC3)N=C(N)N2)c1`, the AC26 was 545 nM.
As for `COc1ccc(C(=O)N/N=C/C23CC[C@@H](O)CC2(O)CC[C@@H]2[C@@H]3CCC3(C)C(C4=CC(=O)OC4)CCC23O)cc1` (stereo not given in full), the AC26 was 5710 nM.
To `O=C(NCc1ccccc1)C1Cc2c(-c3cccc(F)c3)ccnc2O1` (stereo not given) belongs 11.2 nM; to `Cc1cccc(C(=O)Nc2cc(S(=O)(=O)N3CCOCC3)ccc2N2CCCC2)c1`, 173 nM.
As to `Cc1ccc(C)c(NC(=S)NC(NC(=O)Cc2cccc3ccccc23)C(Cl)(Cl)Cl)c1` (stereo not given), the AC26 was 1270 nM.
As for `Cc1ccc2c(c1)C(=O)N1[C@H]3c4cc(Cl)ccc4OC[C@@H]3[C@H](c3ccccc3)[C@]1(C)C(=O)N2`, the AC26 is 1260 nM.
With `O=C(CCl)Nc1cccc(S(=O)(=O)NC2=NCCC2)c1`, the AC26 was 939 nM.
On to `CC1CN(c2nc(-c3ccccc3)nnc2-c2ccccc2)CC(C)O1` (stereo not given), for which the AC26 is 368 nM.
`Cn1c(=O)n(C)c2cc(C(=O)Nc3ccc4c(c3)OCO4)ccc21`: the AC26 is 1740 nM.
Under `COc1ccc2c(c1)OC[C@H]1[C@H]2N2C(=O)c3cc(Br)ccc3NC(=O)[C@@]2(C)[C@H]1c1ccccc1` stands 976 nM; under `COC(=O)c1c(C)[nH]c(C(=O)/C=C/c2cccc(Cl)c2)c1C`, 2410 nM.
With `CC1(C(=O)Nc2ccc(Cl)cc2)Cc2c(-c3cccc(C(N)=O)c3)ccnc2O1` (stereo not given), the AC26 is 15400 nM.
For the compound `Cc1cc2nnc(SCC(=O)NCc3ccco3)n2c2ccccc12`, the AC26 was 1360 nM.
In the case of `C=CCn1c(SCc2c(C)noc2C)nc2sc(C)c(C)c2c1=O`, the AC26 is 891 nM.
With `Nc1ccc2nc(-c3ccccc3)c(-c3ccccc3)nc2c1`, the AC26 was 1480 nM.
For `CC(=O)Nc1ccc(C(=O)N/N=C/c2ccccc2OCc2ccccc2)cc1`, the AC26 is 1490 nM.
Consider `Cc1cc(NC(=O)CN2C(=O)NC3(CCCCCC3)C2=O)ccc1Br`, for which the AC26 is 1570 nM.
In the case of `c1ccc2sc(Sc3ncnc4sccc34)nc2c1`, the AC26 was 1480 nM.
For the compound `Cc1ccc(-c2cc(C(=O)N3CC(C)OC(C)C3)c3ccccc3n2)o1` (stereo not given), the AC26 was 4280 nM.
Consider `COc1ccccc1-c1cc(NC=O)c2ncc(-c3cccc(C(=O)N(C)C)c3)n2c1`, for which the AC26 is 4020 nM.
Take `Cc1cc(C)nc(N2Cc3ccccc3C2=N)n1`: the AC26 was 4560 nM.
Turning to `COc1ccc(NC2=C(C)C(=O)CC2)cc1`, the AC26 was 2940 nM.
Consider `COc1ccc2c(c1)C(=O)N1[C@H]3c4cc(Br)ccc4OC[C@@H]3[C@H](c3ccccc3)[C@]1(C)C(=O)N2`, for which the AC26 was 851 nM.
On to `COc1cccc(OCC(O)CN2CCN(CCN3C(=O)c4cccc5cccc(c45)C3=O)CC2)c1` (stereo not given), for which the AC26 is 4250 nM.
As to `Cc1c(Cl)cccc1N=Cc1ccc([N+](=O)[O-])s1`, the AC26 was 1870 nM.
As for `Cc1cc(NC(=O)CSc2nc3c(C)cccc3cc2C#N)no1`, the AC26 is 3320 nM.
Take `O=C(/C(=C\c1ccccc1)c1nc2ccccc2[nH]1)c1ccc(Cl)cc1`: the AC26 was 1000 nM.
For the compound `Clc1cccc(Cl)c1Cn1cnc2c(NCc3ccco3)ncnc21`, the AC26 is 17300 nM.
Turning to `O=C(C[C@@H]1C[C@H]2c3cc(NC(=O)c4cccnc4)ccc3O[C@H]2[C@H](CO)O1)NCc1ccc(Oc2ccccc2)cc1`, the AC26 is 8780 nM.
As to `O=C1c2cccc3cccc(c23)C(=O)N1CC1CCN(CC(O)COCc2ccc3c(c2)OCO3)CC1` (stereo not given), the AC26 is > 19500 nM (inactive).
To `CCOC(=O)Cc1csc(/N=C/c2c(O)n(-c3ccc(C)c(C)c3)c(=O)c3ccccc23)n1` belongs 2580 nM.
To `NNC(=O)c1oc2nc(-c3ccco3)cc(-c3ccco3)c2c1N` belongs 4260 nM.
Turning to `Cc1ccc(S(=O)(=O)c2cc3c(=O)n4ccccc4nc3n(CCc3ccccc3)c2=N)cc1`, the AC26 is 84.5 nM.
Regarding `COc1ccccc1/C=C/C(=O)/C=C/c1ccccc1O`, the AC26 was 696 nM.
Take `Cc1cccn2c(=O)c3cc(C(=O)NCc4ccco4)c(=N)n(CCc4ccccc4)c3nc12`: the AC26 was 1170 nM.
To `Cc1ccc(C(=O)/C=C/c2ccc(Br)cc2)o1` belongs 16600 nM; to `COc1ccc(Nc2cc(C)nc(-n3nc(C)cc3C)n2)cc1`, 193 nM.
To `CN(C)c1ccc(CNC(=O)C2(C)Cc3c(-c4ccc5c(c4)OCO5)ccnc3O2)cc1` (stereo not given) belongs 2630 nM; to `COc1ccc2cc(CN(CC3CCCO3)C(=O)Nc3ccccc3OC)c(=O)[nH]c2c1` (stereo not given), 4020 nM; to `O=S(=O)([N-]c1nc2ccccc2nc1-n1cc[n+](Cc2ccccc2)c1)c1ccccc1`, 520 nM.
For the compound `COc1ccc(C(=O)/C=C2/C(=O)Nc3ccccc32)cc1OC`, the AC26 was 714 nM.
On to `COc1ccccc1/C=N/NC(=O)CSc1cc(C)nc2ccccc12`, for which the AC26 is 2940 nM.
Turning to `CC1(C(=O)NCCc2ccccc2)Cc2c(-c3ccc4c(c3)OCO4)ccnc2O1` (stereo not given), the AC26 was 3160 nM.
To `COc1cccc(/C=N/NC(=O)c2cc3c(OC)c(OC)ccc3[nH]2)c1OC` belongs 5850 nM; to `O=C(NCc1cccs1)C1Cc2c(-c3ccc(Cl)cc3)ccnc2O1` (stereo not given), 1670 nM.
Under `CC(=O)c1cccc(Nc2cc(C)nc3c(C)cccc23)c1` stands 5870 nM.
Under `CCN1C(=O)c2cccc3c(S(=O)(=O)N4CCC(C)CC4)ccc1c23` stands 1720 nM; under `O=C(NCCN1C(=O)S/C(=C\c2ccccc2Cl)C1=O)C1=COCCO1`, 7850 nM; under `CCCCCCC(=O)N(O)C1CC(=O)N(c2ccc(C)cc2)C1=O` (stereo not given), 3990 nM.
As for `COc1ccc(Cl)cc1NC(=O)CN(C)CC(=O)Nc1ccccc1N1CCOCC1`, the AC26 is 658 nM.
Take `O=C(N/N=C/c1ccc(Cl)cc1)c1cc(-c2cccnc2)nc2ccccc12`: the AC26 was 417 nM.
`C=C(C)Cn1c2ccc(NC(=O)CCc3cccc(Cl)c3)cc2c(=O)n1C`: the AC26 was 7490 nM.
`CCOC(=O)N1CCC(NC(=O)c2ccc3c(c2)N=C(C)c2c(C)ccc(C)c2S3)CC1`: the AC26 is 441 nM.
Take `CCc1cccc(NC(=O)c2cc(S(=O)(=O)N(C)C)ccc2N2CCCC2)c1`: the AC26 was 646 nM.
Under `Cc1cc(Br)cc2c(C(=O)Nc3c(C)n(C)n(-c4ccccc4)c3=O)cc(-c3cccs3)nc12` stands 3650 nM; under `COc1ccc(CCn2c(=N)c(C(=O)NCC3CCCO3)cc3c(=O)n4cccc(C)c4nc32)cc1OC` (stereo not given), 652 nM; under `Cc1nn(-c2ccccc2)c2c1CC(=O)Nc1ccccc1-2`, 329 nM.
With `Cc1ccc(C)c(NC(=O)Cn2nnc(C(=O)NCc3ccco3)c2N)c1`, the AC26 is 9800 nM.
On to `O=C(COc1ccccc1)Nc1cccc(-c2cn3cccnc3n2)c1`, for which the AC26 is 5880 nM.
Under `COc1cc(-c2cc(OC)c(O)c(OC)c2)cc(OC)c1O` stands 3600 nM; under `CC(=O)Nc1ccc(CC(=O)NCCC(c2ccccc2)c2ccccc2)cc1`, 11300 nM.
With `Oc1ccc(Nc2nc(N3CCCC3)c3ccccc3n2)cc1`, the AC26 was 335 nM.
To `NC(=O)COc1ccc(C(=O)/C=C2/C(=O)Nc3ccccc32)cc1` belongs 3180 nM; to `CCC(C)C(=O)OC1CCC=C2C=CC(C)C(CCC3CC(O)CC(=O)O3)C21` (stereo not given), 34.8 nM; to `COc1ccccc1NC(=O)c1cnc(SCC(=O)NCC2CCCO2)n(C)c1=O` (stereo not given), 1970 nM.
With `COc1ccc(OC)c2nc3c(C(=O)NCCN(C)C)cccc3nc12`, the AC26 is 187 nM.
As for `Cc1ccccc1OCCc1c(C)[nH]c(=S)[nH]c1=O`, the AC26 was 1700 nM.
Under `Cc1ccc(CC(=O)NCc2ccc(F)cc2)cc1` stands 824 nM; under `Cc1ccc(N=Nc2c(N)nn(-c3ccccc3)c2N)cc1`, 602 nM; under `CC(C)(C)OC(=O)[C@H](Cc1ccccc1)NC(=O)c1nc[nH]c1C(=O)N1CCc2ccccc2C1`, 3820 nM.
For `CCCNC(=O)c1ccccc1NC(=O)c1ccc2c(c1)NC(=O)C(C)S2` (stereo not given), the AC26 is 1450 nM.
In the case of `CN(C1=C(NC(=O)c2ccc(Cl)cc2)C(=O)c2ccccc2C1=O)c1ccccc1`, the AC26 was 3410 nM.
As for `CCOc1ccc(NC(=S)NC(=O)/C=C/c2ccc(C)cc2)c([N+](=O)[O-])c1`, the AC26 is 3930 nM.
On to `Cn1c(=O)n(C)c2cc(NS(=O)(=O)c3ccc(C(C)(C)C)cc3)ccc21`, for which the AC26 was 9340 nM.
